± gives the expanded uncertainty stated by the source.
Assay: xn = mol fraction of the nth substance listed
Conditions: Liquid, Falling or rolling sphere viscometry

Cc1ccccc1 [toluene] + CCO
viscosity [mPa·s]
Conditions	x2 = 0.125	x2 = 0.25	x2 = 0.375	x2 = 0.5	x2 = 0.625	x2 = 0.75	x2 = 0.875
293.15 K, 100 kPa	0.588 ± 0.013	0.609 ± 0.013	0.652 ± 0.014	0.71 ± 0.015	0.79 ± 0.017	0.899 ± 0.019	1.023 ± 0.022
293.15 K, 20000 kPa	0.68 ± 0.015	0.71 ± 0.015	0.754 ± 0.016	0.815 ± 0.017	0.909 ± 0.019	1.014 ± 0.022	1.157 ± 0.025
293.15 K, 40000 kPa	0.781 ± 0.017	0.816 ± 0.017	0.866 ± 0.019	0.931 ± 0.02	1.034 ± 0.022	1.152 ± 0.025	1.306 ± 0.028
293.15 K, 60000 kPa	0.893 ± 0.019	0.931 ± 0.02	0.986 ± 0.021	1.055 ± 0.023	1.166 ± 0.025	1.297 ± 0.028	1.457 ± 0.031
293.15 K, 80000 kPa	1.016 ± 0.022	1.054 ± 0.023	1.114 ± 0.024	1.187 ± 0.025	1.302 ± 0.028	1.444 ± 0.031	1.604 ± 0.034
293.15 K, 100000 kPa	1.153 ± 0.025	1.189 ± 0.025	1.251 ± 0.027	1.331 ± 0.029	1.449 ± 0.031	1.6 ± 0.034	1.757 ± 0.038
313.15 K, 100 kPa	0.462 ± 0.01	0.471 ± 0.01	0.49 ± 0.011	0.525 ± 0.011	0.574 ± 0.012	0.635 ± 0.014	0.717 ± 0.015
313.15 K, 20000 kPa	0.538 ± 0.012	0.549 ± 0.012	0.573 ± 0.012	0.611 ± 0.013	0.662 ± 0.014	0.729 ± 0.016	0.825 ± 0.018
313.15 K, 40000 kPa	0.619 ± 0.013	0.632 ± 0.014	0.658 ± 0.014	0.699 ± 0.015	0.757 ± 0.016	0.83 ± 0.018	0.932 ± 0.02
313.15 K, 60000 kPa	0.705 ± 0.015	0.718 ± 0.015	0.747 ± 0.016	0.792 ± 0.017	0.854 ± 0.018	0.933 ± 0.02	1.039 ± 0.022
313.15 K, 80000 kPa	0.796 ± 0.017	0.81 ± 0.017	0.841 ± 0.018	0.889 ± 0.019	0.955 ± 0.021	1.038 ± 0.022	1.147 ± 0.025
313.15 K, 100000 kPa	0.893 ± 0.019	0.907 ± 0.019	0.94 ± 0.02	0.991 ± 0.021	–	–	–

Reference: the NIST ThermoML archive (doi:10.1007/s10765-005-8089-2)
